The values below come from patent US9193731B2, “Antimicrobial compounds and methods of making and using the same” (Melinta Therapeutics, Inc., priority 2009, dated 2015).

For orientation: MIC means the lowest concentration found to suppress growth.

Where a name gives a salt, the structure may show the parent alone. Read-outs that look alike come from different tables or passages of the source. Some results are limits rather than exact numbers.

The subject of the assay is Escherichia coli strain ATCC25922. Briefly: standard microdilution assay to determine minimum inhibitory concentrations (MICs). Format: cell-based. To be noted: for MIC: Escherichia coli; for E. coli ATCC25922 MIC: Escherichia coli strain ATCC25922, microdilution. The procedure, abridged:
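E. coli strain ATCC25922 tested per CLSI microdilution methodology (about 100 microliters per well) to find minimum inhibitory concentrations. Activity scored categorically at a 16 micrograms/ml threshold.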
In general terms: In broth dilution the organism is exposed to a series of concentrations in liquid medium.

The mark [1] stands for this setting: ATCC25922, Escherichia coli strain ATCC25922, microdilution, read-out: E. coli ATCC25922 MIC.

In the case of `NCc1ccc(-n2cc3cc(-c4cccc(S(=O)(=O)N(CCCc5cn[nH]c5)C5CCNCC5)c4)[nH]c3nc2=O)cc1` [Compound 1225], the MIC under setting [1] was over 16 µg/mL.
For `CNCc1ccc(-n2cc3cc(-c4ccc(S(=O)(=O)N(CCCC5CCCO5)C5CCNCC5)cc4)[nH]c3nc2=O)cc1` (stereo not drawn) [Compound 1052], the MIC under setting [1] was over 16 µg/mL.
Take `NCCCNCc1ccc(-n2cc3c(nc2=O)[nH]c2ccccc23)cc1` [Compound 335]: the MIC under setting [1] is over 16 µg/mL.
Consider `N=C(N)NCCCNC(=O)c1ccc(-n2cc3cc(-c4cc(CCCCN)cc(OC(F)(F)F)c4)[nH]c3nc2=O)cc1` [Compound 2048a], for which the “E. coli ATCC25922 MIC” value is given as “+ (a “+” indicates that the compound has an MIC value of 16 micrograms/ml or less)”.
Turning to `CS(=O)(=O)NCCc1cc(OCC(F)CN)cc(-c2cc3cn(-c4ccc(CNCCCNC(=N)N)cc4)c(=O)nc3[nH]2)c1` (stereo not drawn) [Compound 2031a], the “E. coli ATCC25922 MIC” value is “− (a “−” indicates that the compound has an MIC value greater than 16 micrograms/ml)”.
As for `COCCOCCOc1cccc(-c2cc3cn(-c4ccc(CN)cc4)c(=O)nc3[nH]2)c1` [Compound 1094], the MIC under setting [1] is over 16 µg/mL.
Turning to `N#Cc1cc(CCCCN)cc(-c2cc3cn(-c4ccc(CNCCCNC(=N)N)cc4)c(=O)nc3[nH]2)c1` [Compound 2084a], the “E. coli ATCC25922 MIC” value was “+ (a “+” indicates that the compound has an MIC value of 16 micrograms/ml or less)”.
Regarding `CNCCOc1ccccc1-c1cc2cn(-c3ccc(CN)cc3)c(=O)nc2[nH]1` [Compound 1129], under setting [1], the minimum inhibitory concentration (MIC) is over 16 µg/mL.
For `N=C(N)NCCCNCc1ccc(-n2cc3cc(-c4cc(OCC(F)CN)cc(-c5ccc([N+](=O)[O-])cc5)c4)[nH]c3nc2=O)cc1` (stereo not drawn) [Compound 2027a], the “E. coli ATCC25922 MIC” value is listed as “+ (a “+” indicates that the compound has an MIC value of 16 micrograms/ml or less)”.
With `NCCC(=O)NCCCn1cc2cc(-c3ccc(S(=O)(=O)N[C@@H]4CCCNC4)cc3)[nH]c2nc1=O` [Compound 1298], the MIC under setting [1] was over 16 µg/mL.
Same read-out and setting: in the case of `NCCCN(CCCN)Cc1ccc(-n2cc3cc(-c4ccc(C(=O)NC5CCNCC5)cc4)[nH]c3nc2=O)cc1` [Compound 197] it was under 16 µg/mL; in that of `NCCCN(CCCN)Cc1ccc(-n2cc3cc(-c4ccc(S(=O)(=O)N5CCN6CCC5CC6)c(F)c4)[nH]c3nc2=O)cc1` [Compound 231], under 16 µg/mL.
With `N=C(N)NCCCNCc1ccc(-n2cc3cc(-c4cc(OCC(F)CN)cc(N5CCNCC5)c4)[nH]c3nc2=O)cc1` (stereo not drawn) [Compound 2005a], the “E. coli ATCC25922 MIC” value was “+ (a “+” indicates that the compound has an MIC value of 16 micrograms/ml or less)”.
As to `O=c1nc2[nH]c3ccccc3c2cn1C1CNC1` [Compound 591], under setting [1], the MIC is over 16 µg/mL.
For the compound `N=C(N)NCCCNCCCn1cc2cc(-c3ccc(S(=O)(=O)NC4CCNCC4)cc3)[nH]c2nc1=O` [Compound 1059], the “E. coli ATCC25922 MIC” value is recorded as “+ (a “+” indicates that the compound has an MIC value of 16 micrograms/ml or less)”.
As for `NCc1ccc(-n2cc3cc(-c4ccc(S(=O)(=O)N(CC5CC5)C5CCNCC5)cc4)[nH]c3nc2=O)cc1` [Compound 935], the “E. coli ATCC25922 MIC” value was “− (a “−” indicates that the compound has an MIC value greater than 16 micrograms/ml)”.
With `CC1CCCCN1CCCN(C1CCNCC1)S(=O)(=O)c1ccc(-c2cc3cn(-c4ccc(CN)cc4)c(=O)nc3[nH]2)cc1` (stereo not drawn) [Compound 1051], the MIC under setting [1] is over 16 µg/mL.
For `CN(C)Cc1ccc(-n2cc3cc(-c4ccc(S(=O)(=O)N(CCCC5CCCC5)C5CCNCC5)cc4)[nH]c3nc2=O)cc1` [Compound 1000], the “E. coli ATCC25922 MIC” value is reported as “− (a “−” indicates that the compound has an MIC value greater than 16 micrograms/ml)”.
On to `NCCCNCc1ccc(-c2cn3c(nc2=O)[nH]c2ccccc23)cc1` [Compound 601, 3-{4-[(3-Amino-propylamino)-methyl]-phenyl}-10H-benzo[4,5]imidazo[1,2-a]pyrimidin-2-one hydrochloride salt], for which the MIC (ATCC25922, read-out: E. coli ATCC25922 MIC) is over 16 µg/mL.
Regarding `CCOCc1cc2cn(-c3ccc(CNCCCN)cc3)c(=O)nc2[nH]1` [Compound 764], under setting [1], the minimum inhibitory concentration (MIC) was over 16 µg/mL.
For `N=C(N)NCCCNCc1ccc(-n2cc3cc(-c4ccc(S(=O)(=O)N(CC5CC5(F)F)C5CCNCC5)cc4)[nH]c3nc2=O)cc1` (stereo not drawn) [Compound 857], the “E. coli ATCC25922 MIC” value was “+ (a “+” indicates that the compound has an MIC value of 16 micrograms/ml or less)”.
In the case of `CN(C)CCOc1ccccc1-c1cc2cn(-c3ccc(CNCCCNC(=N)N)cc3)c(=O)nc2[nH]1` [Compound 1167], the MIC under setting [1] is over 16 µg/mL.
As for `N=C(N)NCCCNCc1ccc(-n2cc3cc(-c4ccc(F)c(CCCCN)c4)[nH]c3nc2=O)cc1` [Compound 2071a], the “E. coli ATCC25922 MIC” value is listed as “+ (a “+” indicates that the compound has an MIC value of 16 micrograms/ml or less)”.
`NCc1ccc(-n2cc3cc(-c4cccc(S(=O)(=O)N(CCC(N)=O)C5CCNCC5)c4)[nH]c3nc2=O)cc1` [Compound 1249]: the MIC under setting [1] is over 16 µg/mL.
`CNCCN1CCCC(c2cc3cn(-c4ccc(CNCCCNC(=N)N)cc4)c(=O)nc3[nH]2)C1` (stereo not drawn) [Compound 2042a]: the “E. coli ATCC25922 MIC” value was “+ (a “+” indicates that the compound has an MIC value of 16 micrograms/ml or less)”.
Consider `CN(C)Cc1cc2cn(-c3ccc(CNCCCN)cc3)c(=O)nc2[nH]1` [Compound 884], for which, under setting [1], the MIC was over 16 µg/mL.
Turning to `CN(C)C(=O)c1cc(-c2cc3cn(-c4ccc(CNCCCN)cc4)c(=O)nc3[nH]2)cc(N2CCNCC2)c1` [Compound 796], the MIC under setting [1] was under 16 µg/mL.
Consider `NCCCNCc1ccc(-n2cc3cc(CCN)[nH]c3nc2=O)cc1` [Compound 624], for which, under setting [1], the MIC was under 16 µg/mL.
As to `N=C(N)NCCCNC(=O)c1ccc(-n2cc3cc(-c4ccc(S(=O)(=O)CCCNC5CCNC5)cc4)[nH]c3nc2=O)cc1` (stereo not drawn) [Compound 1350], the “E. coli ATCC25922 MIC” value was “+ (a “+” indicates that the compound has an MIC value of 16 micrograms/ml or less)”.
Same read-out and setting: in the case of `N=C(N)NCCCNCc1ccc(-n2cc3cc(-c4cc(CCO)cc(OCC(F)CN)c4)[nH]c3nc2=O)cc1` (stereo not drawn) [Compound 2004a] it was “− (a “−” indicates that the compound has an MIC value greater than 16 micrograms/ml)”; in that of `N=C(N)NCCCNCc1ccc(-n2cc3cc(-c4cc(CCCCN)ccc4Cl)[nH]c3nc2=O)cc1` [Compound 2073a], “+ (a “+” indicates that the compound has an MIC value of 16 micrograms/ml or less)”.
As to `O=C(NC1CCNCC1)c1ccc(-c2cc3cn(-c4ccc(CNCCCCl)cc4)c(=O)nc3[nH]2)cc1F` [Compound 254], under setting [1], the MIC is over 16 µg/mL.
In the case of `N=C(N)NCCCNCc1ccc(-n2cc3cc(-c4ccc(S(=O)(=O)N(CCOc5ccc(F)cc5)C5CCOCC5)cc4)[nH]c3nc2=O)cc1` [Compound 880], the “E. coli ATCC25922 MIC” value is listed as “− (a “−” indicates that the compound has an MIC value greater than 16 micrograms/ml)”.
On the same count and under the same terms, in the case of `N=C(N)NCCCNCc1ccc(-n2cc3cc(-c4cccc(OCC5(CN)CCC5)c4)[nH]c3nc2=O)cc1` [Compound 1434] it was “+ (a “+” indicates that the compound has an MIC value of 16 micrograms/ml or less)”.
Turning to `O=c1nc2[nH]c(-c3ccc(S(=O)(=O)NC4CCNCC4)cc3F)cc2cn1-c1ccc(CNCCCF)c(F)c1` [Compound 279], the MIC under setting [1] is over 16 µg/mL.
On the same count and under the same terms, in the case of `CN1CCC(NC(=O)c2ccc(-c3cc4cn(-c5ccc(CN(CCCN)CCCN)cc5)c(=O)nc4[nH]3)cc2)CC1` [Compound 204] it was under 16 µg/mL.
Consider `N=C(N)NCCCNCc1ccc(-n2cc3cc(C4CCCN(CC(O)CN)C4)[nH]c3nc2=O)cc1` (stereo not drawn) [Compound 1422], for which the “E. coli ATCC25922 MIC” value was “+ (a “+” indicates that the compound has an MIC value of 16 micrograms/ml or less)”.
On to `NCCCc1cccc(-c2cc3cn(-c4ccc(C(N)=O)cc4)c(=O)nc3[nH]2)c1` [Compound 2056a], for which the MIC under setting [1] was over 16 µg/mL.
Consider `N=C(N)NCCCNCc1ccc(-n2cc3cc(CCNC4CNC4)[nH]c3nc2=O)cc1` [Compound 1398], for which the “E. coli ATCC25922 MIC” value is listed as “+ (a “+” indicates that the compound has an MIC value of 16 micrograms/ml or less)”.
On to `N=C(N)NCCCN(CCCN)Cc1ccc(-n2cc3cc(-c4ccc(S(=O)(=O)NC5CN6CCC5CC6)cc4)[nH]c3nc2=O)cc1` (stereo not drawn) [Compound 219], for which the MIC under setting [1] is under 16 µg/mL.
On the same count and under the same terms, under `NCCCCCc1ccc(-c2cn3cc(-c4ccc(Br)cc4)[nH]c3nc2=O)cc1` [Compound 886] stands over 16 µg/mL; under `NCCCNCc1ccc(-n2cc3cc(-c4ccc(C(F)(F)F)cc4)[nH]c3nc2=O)cc1` [Compound 611], over 16 µg/mL; under `NCCCOc1ccccc1-c1cc2cn(-c3ccc(CN)cc3)c(=O)nc2[nH]1` [Compound 1106], over 16 µg/mL.
The same measure, in the same setting: under `NCCCN(CCCN)Cc1ccc(-n2cc3cc(-c4ccc(S(=O)(=O)N(CCN5CCOCC5)C5CCNCC5)cc4)[nH]c3nc2=O)cc1` [Compound 233] stands under 16 µg/mL.
On to `N=C(N)NCCCNCc1ccc(-n2cc3cc(-c4cc(C(=O)NCCCF)cc(N5CCNCC5)c4)[nH]c3nc2=O)cc1` [Compound 997], for which the “E. coli ATCC25922 MIC” value is listed as “+ (a “+” indicates that the compound has an MIC value of 16 micrograms/ml or less)”.
Consider `N=C(N)NCCCNCc1ccc(-n2cc3cc(-c4cccc(OCCCN)c4)[nH]c3nc2=O)cc1F` [Compound 1263], for which the MIC under setting [1] is under 16 µg/mL.
Same read-out and setting: in the case of `NCCCCN1CC=C(n2cc3cc(-c4ccc(F)cc4)[nH]c3nc2=O)CC1` [Compound 511] it was over 16 µg/mL; in that of `NCc1ccc(-n2cc3cc(-c4ccccc4OCCCO)[nH]c3nc2=O)cc1` [Compound 1105], over 16 µg/mL.
For the compound `CC(C)(C)NCC(=O)Nc1ccc(-c2cc3cn(-c4ccc(CNCCCN=C(N)N)cc4)c(=O)nc3[nH]2)cc1` [Compound 1218], the “E. coli ATCC25922 MIC” value was “+ (a “+” indicates that the compound has an MIC value of 16 micrograms/ml or less)”.
Still for that read-out and setting: in the case of `N=C(N)NCCCNCc1ccc(-n2cc3cc(-c4ccc(S(=O)(=O)N(Cc5ccc6nonc6c5)C5CCNCC5)cc4)[nH]c3nc2=O)cc1` [Compound 769] it was “+ (a “+” indicates that the compound has an MIC value of 16 micrograms/ml or less)”.
With `NCCCN(CCCN)Cc1ccc(-n2cc3cc(-c4ccc(C(=O)O)cc4)[nH]c3nc2=O)cc1` [Compound 218], under setting [1], the MIC is over 16 µg/mL.
